≈ marks a conversion by molar mass, not a printed value.
What was measured:
Format in all cases: cell-based
[1] = test system: PC-3 (prostate adenocarcinoma); experiment: In vitro cytotoxicity, sulforhodamine B (SRB) method, PC-3; conditions: Homo sapiens; PC-3, SRB method; read-out: cytotoxicity (ED50) PC-3
Experimental: (§1) The chalcone derivatives of the present invention were evaluated for in vitro cytotoxicity against human carcinoma cell lines using a sulforhodamine B (SRB) method, which was developed in 1989 by the National Cancer Institute (NCI), USA.
(§2) HCT15 (colon adenocarcinoma; ATCC CCL-225), PC-3 (prostate adenocarcinoma; ATCC CRL-1435), and A-549 (lung carcinoma; ATCC CCL-185) cell lines were used. All of these carcinoma cells were sub-cultured at the Korean Research Institute of Bioscience and Biotechnology (KRIBB), Korea.
(§3) The human carcinoma cell lines were cultured in 10% FCS-containing RPMI 1640 medium (Gibco Cat. No. 31800) in an incubator at 37° C. under 5% CO2, and sub-cultured twice per week.
(§4) Cells were detached from the attached surface using 0.25% Trypsin (Sigma) and 3 mM CDTA (1,2-cyclohexane diamine tetraacetic acid, Sigma) in phosphate buffered saline (PBS, Sigma).
(§5) Compounds to be tested (the chalcone derivatives set forth in Table 1) were dissolved in a small amount of dimethylsulfoxide (DMSO, Sigma), and diluted in culture medium to a desired concentration. The final concentration of DMSO was less than 0.5%. The diluted compounds (final concentration: 30, 10, 3, 1 and 0.3 μg/ml) were sterilized through a 0.22-μm microfilter (Millipore). The cytotoxicity of the compounds to human carcinoma cell lines was assessed using a typical SRB method.

[2] = test system: A-549 (lung carcinoma); experiment: In vitro cytotoxicity, sulforhodamine B (SRB) method, A-549; conditions: Homo sapiens, A549; A-549, SRB method; read-out: cytotoxicity (ED50) A-549
Experimental: as §1, §2, §3, §4, §5

[3] = test system: HCT15 (colon adenocarcinoma); experiment: In vitro cytotoxicity, sulforhodamine B (SRB) method, HCT15; conditions: Homo sapiens; HCT-15, SRB method; read-out: cytotoxicity (ED50) HCT-15
Experimental: as §1, §2, §3, §4, §5

## O=C(/C=C/c1ccc(O)c(O)c1)c1ccc(NS(=O)(=O)c2ccc([N+](=O)[O-])cc2)cc1 [Compound 75, 4′-(p-nitrobenzensulfonylamino)-3,4-dihydroxychalcone]
[1]
  IC50: 15 µg/mL (≈ 34.1 µM)
[2]
  IC50: 14 µg/mL (≈ 31.8 µM)
[3]
  IC50: 8 µg/mL (≈ 18.2 µM)

## O=C(/C=C/c1ccc(O)c(O)c1)c1ccc(NS(=O)(=O)c2cccc([N+](=O)[O-])c2)cc1 [Compound 76, 4′-(m-nitrobenzensulfonylamino)-3,4-dihydroxychalcone]
[1]
  IC50: 17 µg/mL (≈ 38.6 µM)
[2]
  IC50: 11 µg/mL (≈ 25 µM)
[3]
  IC50: 12 µg/mL (≈ 27.2 µM)

## O=C(/C=C/c1ccc(O)c(O)c1)c1ccc(NS(=O)(=O)c2ccccc2[N+](=O)[O-])cc1 [Compound 77, 4′-(o-nitrobenzensulfonylamino)-3,4-dihydroxychalcone]
[1]
  IC50: 12 µg/mL (≈ 27.2 µM)
[2]
  IC50: 11 µg/mL (≈ 25 µM)
[3]
  IC50: 10 µg/mL (≈ 22.7 µM)

## Nc1ccc(S(=O)(=O)Nc2ccc(C(=O)/C=C/c3ccc(O)c(O)c3)cc2)cc1 [Compound 78, 4′-(p-aminobenzensulfonylamino)-3,4-dihydroxychalcone]
[1]
  IC50: 7 µg/mL (≈ 17.1 µM)
[2]
  IC50: 10 µg/mL (≈ 24.4 µM)
[3]
  IC50: 5 µg/mL (≈ 12.2 µM)

## Nc1cccc(S(=O)(=O)Nc2ccc(C(=O)/C=C/c3ccc(O)c(O)c3)cc2)c1 [Compound 79, 4′-(m-aminobenzensulfonylamino)-3,4-dihydroxychalcone]
[1]
  IC50: 15 µg/mL (≈ 36.5 µM)
[2]
  IC50: 8 µg/mL (≈ 19.5 µM)
[3]
  IC50: 7 µg/mL (≈ 17.1 µM)

## Nc1ccccc1S(=O)(=O)Nc1ccc(C(=O)/C=C/c2ccc(O)c(O)c2)cc1 [Compound 80, 4′-(o-aminobenzensulfonylamino)-3,4-dihydroxychalcone]
[1]
  IC50: 23 µg/mL (≈ 56 µM)
[2]
  IC50: 11 µg/mL (≈ 26.8 µM)
[3]
  IC50: 13 µg/mL (≈ 31.7 µM)

## O=C(/C=C/c1ccc(O)c(O)c1)c1ccc(NS(=O)(=O)c2ccccc2)cc1 [Compound 81, 4′-(benzensulfonylamino)-3,4-dihydroxychalcone]
[1]
  IC50: 24 µg/mL (≈ 60.7 µM)
[2]
  IC50: 28 µg/mL (≈ 70.8 µM)
[3]
  IC50: 14 µg/mL (≈ 35.4 µM)

## CS(=O)(=O)Nc1ccc(C(=O)/C=C/c2ccc(O)c(O)c2)cc1 [Compound 82, 4′-(methanesulfonylamino)-3,4-dihydroxychalcone]
[1]
  IC50: 22 µg/mL (≈ 66 µM)
[2]
  IC50: 17 µg/mL (≈ 51 µM)
[3]
  IC50: 12 µg/mL (≈ 36 µM)

## Cc1ccc(S(=O)(=O)Nc2ccc(C(=O)/C=C/c3ccc(O)cc3Cl)cc2)cc1 [Compound 83, 4′-(p-toluenebenzensulfonylamino)-2-chloro-4-hydroxychalcone]
[1]
  IC50: 14 µg/mL (≈ 32.7 µM)
[2]
  IC50: 11 µg/mL (≈ 25.7 µM)
[3]
  IC50: 15 µg/mL (≈ 35.1 µM)

## O=C(/C=C/c1ccc(O)cc1)c1ccc(OS(=O)(=O)c2ccc(O)cc2)cc1 [Compound 84, 4′-(p-hydroxybenzenesulfonate)-4-hydroxychalcone]
[1]
  IC50: 22 µg/mL (≈ 55.5 µM)
[2]
  IC50: 38 µg/mL (≈ 95.9 µM)
[3]
  IC50: 32 µg/mL (≈ 80.7 µM)

## O=C(/C=C/c1cccc(O)c1)c1ccc(OS(=O)(=O)c2ccc(O)cc2)cc1 [Compound 85, 4′-(p-hydroxybenzenesulfonate)-3-hydroxychalcone]
[1]
  IC50: 28 µg/mL (≈ 70.6 µM)
[2]
  IC50: 33 µg/mL (≈ 83.2 µM)
[3]
  IC50: 29 µg/mL (≈ 73.2 µM)

## O=C(/C=C/c1ccccc1O)c1ccc(OS(=O)(=O)c2ccc(O)cc2)cc1 [Compound 86, 4′-(p-hydroxybenzenesulfonate)-2-hydroxychalcone]
[1]
  IC50: 34 µg/mL (≈ 85.8 µM)
[2]
  IC50: 30 µg/mL (≈ 75.7 µM)
[3]
  IC50: 26 µg/mL (≈ 65.6 µM)

## O=C(/C=C/c1ccc(O)cc1)c1ccc(OS(=O)(=O)c2cccc(O)c2)cc1 [Compound 87, 4′-(m-hydroxybenzenesulfonate)-4-hydroxychalcone]
[1]
  IC50: 21 µg/mL (≈ 53 µM)
[2]
  IC50: 20 µg/mL (≈ 50.5 µM)
[3]
  IC50: 19 µg/mL (≈ 47.9 µM)

## O=C(/C=C/c1cccc(O)c1)c1ccc(OS(=O)(=O)c2cccc(O)c2)cc1 [Compound 88, 4′-(m-hydroxybenzenesulfonate)-3-hydroxychalcone]
[1]
  IC50: 28 µg/mL (≈ 70.6 µM)
[2]
  IC50: 32 µg/mL (≈ 80.7 µM)
[3]
  IC50: 21 µg/mL (≈ 53 µM)

## O=C(/C=C/c1ccccc1O)c1ccc(OS(=O)(=O)c2cccc(O)c2)cc1 [Compound 89, 4′-(m-hydroxybenzenesulfonate)-2-hydroxychalcone]
[1]
  IC50: 33 µg/mL (≈ 83.2 µM)
[2]
  IC50: 37 µg/mL (≈ 93.3 µM)
[3]
  IC50: 24 µg/mL (≈ 60.5 µM)

## O=C(/C=C/c1ccc(O)c(O)c1)c1ccc(OS(=O)(=O)c2ccc(O)cc2)cc1 [Compound 90, 4′-(p-hydroxybenzenesulfonate)-3,4-dihydroxychalcone]
[1]
  IC50: 8 µg/mL (≈ 19.4 µM)
[2]
  IC50: 4 µg/mL (≈ 9.7 µM)
[3]
  IC50: 6 µg/mL (≈ 14.5 µM)

## O=C(/C=C/c1cccc(O)c1O)c1ccc(OS(=O)(=O)c2ccc(O)cc2)cc1 [Compound 91, 4′-(p-hydroxybenzenesulfonate)-2,3-dihydroxychalcone]
[1]
  IC50: 14 µg/mL (≈ 33.9 µM)
[2]
  IC50: 10 µg/mL (≈ 24.2 µM)
[3]
  IC50: 7 µg/mL (≈ 17 µM)

## O=C(/C=C/c1ccc(O)cc1O)c1ccc(OS(=O)(=O)c2ccc(O)cc2)cc1 [Compound 92, 4′-(p-hydroxybenzenesulfonate)-2,4-dihydroxychalcone]
[1]
  IC50: 7 µg/mL (≈ 17 µM)
[2]
  IC50: 9 µg/mL (≈ 21.8 µM)
[3]
  IC50: 8 µg/mL (≈ 19.4 µM)

## O=C(/C=C/c1cc(O)ccc1O)c1ccc(OS(=O)(=O)c2ccc(O)cc2)cc1 [Compound 93, 4′-(p-hydroxybenzenesulfonate)-2,5-dihydroxychalcone]
[1]
  IC50: 14 µg/mL (≈ 33.9 µM)
[2]
  IC50: 8 µg/mL (≈ 19.4 µM)
[3]
  IC50: 6 µg/mL (≈ 14.5 µM)

## O=C(/C=C/c1ccc(O)c(O)c1)c1ccc(OS(=O)(=O)c2cccc(O)c2)cc1 [Compound 94, 4′-(m-hydroxybenzenesulfonate)-3,4-dihydroxychalcone]
[1]
  IC50: 16 µg/mL (≈ 38.8 µM)
[2]
  IC50: 11 µg/mL (≈ 26.7 µM)
[3]
  IC50: 7 µg/mL (≈ 17 µM)

## O=C(/C=C/c1cccc(O)c1O)c1ccc(OS(=O)(=O)c2cccc(O)c2)cc1 [Compound 95, 4′-(m-hydroxybenzenesulfonate)-2,3-dihydroxychalcone]
[1]
  IC50: 11 µg/mL (≈ 26.7 µM)
[2]
  IC50: 9 µg/mL (≈ 21.8 µM)
[3]
  IC50: 9 µg/mL (≈ 21.8 µM)

## O=C(/C=C/c1ccc(O)cc1O)c1ccc(OS(=O)(=O)c2cccc(O)c2)cc1 [Compound 96, 4′-(m-hydroxybenzenesulfonate)-2,4-dihydroxychalcone]
[1]
  IC50: 24 µg/mL (≈ 58.2 µM)
[2]
  IC50: 7 µg/mL (≈ 17 µM)
[3]
  IC50: 8 µg/mL (≈ 19.4 µM)

## O=C(/C=C/c1cc(O)ccc1O)c1ccc(OS(=O)(=O)c2cccc(O)c2)cc1 [Compound 97, 4′-(m-hydroxybenzenesulfonate)-2,5-dihydroxychalcone]
[1]
  IC50: 8 µg/mL (≈ 19.4 µM)
[2]
  IC50: 6 µg/mL (≈ 14.5 µM)
[3]
  IC50: 11 µg/mL (≈ 26.7 µM)

— patent US9072698B2, “Method for screening anti-cancer compounds inhibiting function of TM4SF5 and anti-cancer composition containing chalcone compounds” (Seoul National University Industry Foundation, priority 2006, dated 2015)
